Experimental data taken from BigSolDB 2.1.
Several values for one entry are separate records, joined by “and”; a condition that tells them apart may be missing. Identical values can stand only once.

Cc1cnc(NC(=O)C2=C(O)c3ccccc3S(=O)(=O)N2C)s1
solubility (mole fraction)
Settings | 293.15 K | 298.15 K | 303.15 K | 308.15 K | 313.15 K
in methanol | 4.02e-05 | 4.87e-05 and 3.93e-05 | 5.88e-05 | 7.04e-05 | 8.46e-05
in water | – | 4.23e-06 | – | – | –

NCCS(=O)(=O)O
in water
Settings | solubility (mole fraction)
298.15 K | 0.0143
303.15 K | 0.0168
308.15 K | 0.0199
313.15 K | 0.0231
318.15 K | 0.0269

c1ccc(P(c2ccccc2)c2ccccc2)cc1
in ethanol
Settings | solubility (mole fraction)
303.5 K | 0.009
308.3 K | 0.0117
313.3 K | 0.0162
318.6 K | 0.0225
323.2 K | 0.0279
327.9 K | 0.0385
333 K | 0.0494

O=C(O)c1ccc(C(=O)O)c(C(=O)O)c1
in acetic acid
Settings | solubility (mole fraction)
313.2 K | 0.00168
323.2 K | 0.00311
333.2 K | 0.0048
343.2 K | 0.00676
353.2 K | 0.0087
363.2 K | 0.0106

CCCCC
in water
Settings | solubility (mole fraction)
286.65 K | 1.1e-05
295.45 K | 1.03e-05

CN1C(C(=O)Nc2ccccn2)=C(O)c2sc(Cl)cc2S1(=O)=O
298.15 K
Settings | solubility (mole fraction)
in ethanol | 1.3e-05
in water | 3e-06

O=c1[nH]cc(F)c(=O)[nH]1
solubility (mole fraction)
Settings | 283.15 K | 288.15 K | 293.15 K | 298.15 K | 303.15 K | 308.15 K | 313.15 K | 318.15 K | 323.15 K
in THF | 0.000217 | 0.000286 | 0.000359 | 0.000471 | 0.000618 | 0.000763 | 0.000961 | 0.0012 | 0.00151
in water | – | – | – | 0.00248 | – | – | – | – | –

C=CC1=C(C(=O)O)N2C(=O)[C@@H](NC(=O)/C(=N\OCC(=O)O)c3csc(N)n3)[C@H]2SC1
in water
Settings | solubility (mole fraction)
293.15 K | 1.38e-05
298.15 K | 1.65e-05
303.15 K | 2.01e-05
308.15 K | 2.49e-05
313.15 K | 3.14e-05
323.15 K | 4.74e-05
333.15 K | 7.01e-05

C1CN2CN3CCN(CN1C3)C2
in water
Settings | solubility (mole fraction)
275 K | 0.0905
277 K | 0.0925
279 K | 0.0946
283 K | 0.0999
288 K | 0.105
293 K | 0.109
298 K | 0.113
303 K | 0.119

CCCN1CCCC[C@H]1C(=O)Nc1c(C)cccc1C
in acetone
Settings | solubility (mole fraction)
278.15 K | 0.00654
283.15 K | 0.00793
288.15 K | 0.0098
293.15 K | 0.012
298.15 K | 0.0148
303.15 K | 0.0184
308.15 K | 0.023
313.15 K | 0.0266
318.15 K | 0.0344

NCCC(=O)N[C@@H](Cc1cnc[nH]1)C(=O)O
in water
Settings | solubility (mole fraction)
288.15 K | 0.0217
293.15 K | 0.0224
298.15 K | 0.0236
303.15 K | 0.0249
308.15 K | 0.0265
313.15 K | 0.0287
318.15 K | 0.0301
323.15 K | 0.0324

CN1COCN(Cc2cnc(Cl)s2)C1=N[N+](=O)[O-]
in methanol
Settings | solubility (mole fraction)
288.15 K | 0.00111
293.15 K | 0.00141
298.15 K | 0.00169
303.15 K | 0.00225
308.15 K | 0.00294
313.15 K | 0.00397
318.15 K | 0.00486
323.15 K | 0.0063

NC(CO)(CO)CO
in methanol
Settings | solubility (mole fraction)
293.2 K | 0.0076
298.2 K | 0.0092
303.2 K | 0.0106
308.2 K | 0.0124
313.2 K | 0.0158

C1=Cc2nc1c(-c1ccccc1)c1ccc([nH]1)c(-c1ccccc1)c1nc(c(-c3ccccc3)c3ccc([nH]3)c2-c2ccccc2)C=C1
in ethanol
Settings | solubility (mole fraction)
303.2 K | 1.76e-06
313.2 K | 2.31e-06
323.2 K | 3.06e-06
333.2 K | 4.01e-06

O=c1cc[nH]c(=O)[nH]1
Settings | solubility (mole fraction)
in water, 298.15 K | 0.000743

O=C1N2CN3C(=O)N4CN5C(=O)N6CN7C(=O)N8CN9C(=O)N%10CN%11C(=O)N%12CN1C1C2N2CN%13C(=O)N(CN%14C(=O)N(CN%15C(=O)N(CN%16C(=O)N(CN%17C(=O)N(CN1C2=O)C%12C%11%17)C%10C9%16)C8C7%15)C6C5%14)C4C3%13 (stereo unspecified)
in water
Settings | solubility (mole fraction)
293.15 K | 0.00231
303.15 K | 0.0027
313.15 K | 0.00336
323.15 K | 0.00403
333.15 K | 0.00481
343.15 K | 0.00573
353.15 K | 0.00662

N[C@@H](C(=O)O)c1ccc(O)cc1
in water
Settings | solubility (mole fraction)
293.25 K | 0.00196
298.13 K | 0.0021
303.15 K | 0.00224
308.18 K | 0.00241
313.15 K | 0.00255
318.17 K | 0.00272

Nc1ccc(Cl)nn1
in water
Settings | solubility (mole fraction)
293.65 K | 6.28e-05
296.05 K | 7.6e-05
303.05 K | 0.000133
308.65 K | 0.000197
323.35 K | 0.000556
328.45 K | 0.000747
333.15 K | 0.000936

c1ccc2cc3ccccc3cc2c1
298.15 K
Settings | solubility (mole fraction)
in 2,2,4-trimethylpentane | 0.00107
in 2-butoxyethanol | 0.00379
in 2-ethoxyethanol | 0.00292
in 2-methoxyethanol | 0.00221
in 2-pentanol | 0.0008
in 2-propoxyethanol | 0.00334
in MTBE | 0.00305
in cyclohexane | 0.00155
in isobutanol | 0.00047
in isopentanol | 0.000727
in isopropanol | 0.000411
in methylcyclohexane | 0.00165
in n-butanol | 0.000801
in n-heptane | 0.00157 and 0.00158
in n-hexane | 0.00127
in n-octane | 0.00184
in n-octanol | 0.00216
in n-pentanol | 0.0011
in n-propanol | 0.000591
in sec-butanol | 0.000585
in tert-amyl alcohol | 0.00079
in tetrahydropyran | 0.0102

O=C(O)c1cccc(C(=O)O)c1
in n-propyl acetate
Settings | solubility (mole fraction)
303.2 K | 0.000791
313.2 K | 0.000934
323.2 K | 0.00108
333.2 K | 0.00132
343.2 K | 0.00138
353.2 K | 0.0018
363.2 K | 0.00215

Cc1ccc(-c2cc(C(F)(F)F)nn2-c2ccc(S(N)(=O)=O)cc2)cc1
in water
Settings | solubility (mole fraction)
293.2 K | 7.36e-08
298.2 K | 8.02e-08
303.2 K | 9.16e-08
308.2 K | 1.27e-07
313.2 K | 1.44e-07

O=[N+]([O-])c1ccc(N/N=C/c2ccco2)cc1
Settings | solubility (mole fraction)
in water, 298.15 K | 1.72e-07

Cc1nc2n(c(=O)c1CCN1CCC(c3noc4cc(F)ccc34)CC1)CCCC2
in water
Settings | solubility (mole fraction)
298.15 K | 1e-07
303.15 K | 1e-07
308.15 K | 2e-07
313.15 K | 2e-07
318.15 K | 3e-07
323.15 K | 4e-07
328.15 K | 5e-07
333.15 K | 6e-07

O=C1c2ccccc2C(=O)N1O
in acetic acid
Settings | solubility (mole fraction)
293.2 K | 0.00298
303.2 K | 0.00394
313.2 K | 0.00504
323.2 K | 0.00658
333.2 K | 0.00816
343.2 K | 0.0103
353.2 K | 0.0127
363.2 K | 0.0155

C(=N\Nc1ccccc1)/c1ccco1
Settings | solubility (mole fraction)
in water, 298.15 K | 5.73e-07

O=c1[nH]cc(C(F)(F)F)c(=O)[nH]1
Settings | solubility (mole fraction)
in water, 298.15 K | 0.00268

O=C1Nc2ccccc2C1=O
Settings | solubility (mole fraction)
in PEG-400, 298.15 K | 0.0985
in PEG-400, 308.15 K | 0.109
in PEG-400, 318.15 K | 0.121
in PEG-400, 328.15 K | 0.132
in PEG-400, 338.15 K | 0.145

in transcutol
Settings | solubility (mole fraction)
298.15 K | 0.52
308.15 K | 0.536
318.15 K | 0.557
328.15 K | 0.579
338.15 K | 0.594
